This note sets out measurements from patent US20250282817A1, “COMPOUNDS FOR DELIVERING GLUTATHIONE TO A TARGET AND METHODS OF MAKING AND USING THE SAME” (priority 2016, published 2025).

One series relates to cells. In words: Oxygen consumption rate (OCR) after 3HP-dependent GSH loss (FIG. 6). Format: cell-based.
A short description of series [1]: Menadione toxicity to hepatocytes from young and old rats (percent viability, LC50). It is filed as cell-based, rat. Particulars: rat. The text has this: (§1) Hepatocytes isolated from an old rat have 60% less mitochondrial GSH than that seen in young adult animals. In this example, menadione was used as a redox cycler, to stress mitochondria in hepatocytes, as GSH-dependent mechanisms can be involved its detoxification. […] The increased vulnerability to menadione has been linked to the loss of GSH resulting from the decline in GSH synthesis capacity.
(§2) Menadione treatment alone served as the positive control.

The next series has as its system hepatocytes. The description is as above. It is filed as cell-based, rat.
Source text: as §1, §2

For series [2], the system named is hepatocytes from aged rats. Particulars: triphenylphosphonium alone. As to the method: Menadione treatment alone served as the positive control. Viability in untreated hepatocytes also was measured over two hours.
Another series has as its system mice. Kind of series: Effect of mitoGSH in animals: i.p. injection of TPP-GSSG, 48 hour observation, liver chemistry profile. It is filed as in vivo. The conditions noted are these: 3.8 mg/kg i.p. As to the method: Three seven-month-old female non-transgenic mice (approximately 30 g each) were injected i.p. with 3.8 mg/kg TPP-GSSG in 100 μL/mouse. TPP-GSSG was initially solubilized in DMF and later diluted in millipure water to 5.3% (v/v) dimethylformamide for injection. […] All mice gained weight (0.1 g-2.3 g) over the 48 hour period. Blood was collected via brachial cut, spun down to collect plasma and then delivered to OSU Veterinary Diagnostic Laboratory for a small animal liver chemistry profile.

As usually defined, the CC50 is the concentration that lowers cell viability or growth by half. A lower CC50 goes with harm at low concentration.

Take `C=CC(O)CC(=O)O` (stereo not drawn) [3HP, 3-hydroxy-4-pentenoate]: in the series with cells (3HP-dependent GSH loss), the “basal respiration, ATP turnover, proton leak, non-mitochondrial respiration (OCR)” value was “does not alter”. Moreover, in the series with cells (higher levels of 3HP treatment), the “respiratory capacity (OCR)” value is on record as “increasingly lost”.

`CC1=CC(=O)c2ccccc2C1=O` [menadione]: the CC50 was 300 µM in series [1] (isolated hepatocytes from old rats, hepatocytes from old rats); about 500 µM in series [1] (isolated hepatocytes from young rats, hepatocytes from young rats); 232 µM in the series on hepatocytes (hepatocytes from old rats); 401 µM with hepatocytes (hepatocytes from young rats).

For the compound Triphenylphosphonium, the “effect on hepatocyte viability” value in series [2] is reported as “did not affect viability”.

In the case of “Triphenylphosphonium glutathione disulfide tetraethyl ester [TPP-GSSG]”, the “health and activity of mice” value with mice (48 hours, female non-transgenic mice) is “no detrimental effects observed”. Further, the “small animal liver chemistry profile (plasma)” value in the series on mice (after 48 hours) was “No liver damage or abnormalities were detected”.
